Experimental data as given in article PMC10962542, “Inhibition of Aurora‐A/N‐Myc Protein–Protein Interaction Using Peptidomimetics: Understanding the Role of Peptide Cyclization” (Chembiochem, 2023).
Marks after values point to notes of the source that are not given here. Where a SMILES comes first, the peptide text is derived from it. Bridges are numbered along the chain shown (N, C = ends).

How the values were obtained:
N‐Myc protein levels = conditions: cited from earlier work
Excerpt: (§1) Similarly, Weiss and co‐workers developed a series of conformation‐disrupting Aurora‐A inhibitors based on diaminopyrimidine and pyrazolopyrimidine scaffolds, such as CD532.[8]

Aurora‐A and N‐Myc = conditions: in comparison to established allosteric Aurora‐A inhibitors; cited from earlier work
Excerpt: as §1

[1] = system: N‐Myc/Aurora‐A interaction; conditions: competition co‐precipitation; cited from earlier work
Excerpt: as §1

circular dichroism = assay: circular dichroism; design: unit not given here; conditions: 25 mM Tris, 150 mM NaCl, 5 mM MgCl2; pH 7.5; 5 °C; 30-120 uM
[2] = target: T1, N‐Myc/Aurora‐A interaction (Aurora‐A122‐403‐C290A/C393A) (Homo sapiens, UniProt O14965, C290A/C393A); assay: competition fluorescence anisotropy (FA) assay against fluorescein labelled N‐Myc61‐89; assay type: binding; conditions: SD; note: equilibrated 2 h at room temperature
T1 construct: Aurora‐A 122‐403‐C290A/C393A protein was produced as described previously; made in house
T1 sequence (O14965 122-403 C290A/C393A): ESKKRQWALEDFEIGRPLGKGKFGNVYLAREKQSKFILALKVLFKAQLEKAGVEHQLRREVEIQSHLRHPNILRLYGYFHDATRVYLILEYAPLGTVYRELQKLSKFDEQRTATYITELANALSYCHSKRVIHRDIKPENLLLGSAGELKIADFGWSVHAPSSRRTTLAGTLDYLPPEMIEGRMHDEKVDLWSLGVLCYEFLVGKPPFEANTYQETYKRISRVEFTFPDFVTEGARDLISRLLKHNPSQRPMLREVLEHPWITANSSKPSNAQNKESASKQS

[3] = circular dichroism (CD) spectroscopy; assay type: physicochemical; conditions: 150 mM NaCl, 5 mM MgCl2, pH 7.5, 5 °C, n=2, free‐thiol (red) samples with 5 mol equivalents TCEP; for MRE222 (mean residue ellipticity at 222 nm): 25 mM Tris, mean ± SD, SD; for % Helicity (estimated): from MRE222 by equation 7, 25 mM Tris
In short: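 Peptides at 30–120 μM in 25 mM Tris, 150 mM NaCl, 5 mM MgCl2, pH 7.5 (plus 5 mol eq. TCEP for free sulfhydryl peptides) were scanned in duplicate at 5 °C from 290 to 180 nm, 1 mm pathlength. Buffer-subtracted ellipticity gave mean residue ellipticity, and % helicity was estimated from MRE at 222 nm.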

Compound	N‐Myc protein levels in xenographs (N‐Myc protein levels)	degradation of Aurora‐A and N‐Myc (Aurora‐A and N‐Myc)	disruption of the N‐Myc/Aurora‐A interaction [1]	helicity (circular dichroism)	IC50 [2]	MRE222 (mean residue ellipticity at 222 nm) [3]	% Helicity (estimated) [3]
O=C(Nc1ccc(Nc2nccc(Nc3cc(C4CCCC4)[nH]n3)n2)cc1)Nc1cccc(C(F)(F)F)c1 [CD532]	reduced N‐Myc protein levels	–	–	–	–	–	–
CN(C)C(=O)c1cc2cnc(Nc3ccc(C(=O)NCCCCCCOc4cccc5c4C(=O)N(C4CCC(=O)NC4=O)C5=O)cc3)nc2n1C1CCCC1 (stereo not shown) [HLB‐0532259]	–	promote degradation of Aurora‐A and N‐Myc with superior potency	–	–	–	–	–
O=C(O)c1ccc(Nc2ncc3c(n2)-c2ccc(Cl)cc2C(c2c(F)cccc2F)=NC3)cc1 [MLN8054]	–	–	disrupted	–	–	–	–
CSCC[C@H](NC(=O)[C@H](CCC(=O)O)NC(=O)[C@@H](NC(=O)[C@@H](NC(=O)[C@H](Cc1c[nH]c2ccccc12)NC(=O)[C@H](CO)NC(=O)[C@@H]1CCCN1C(=O)[C@@H]1CCCN1C(=O)[C@H](CCC(=O)O)NC(C)=O)C(C)C)[C@@H](C)O)C(=O)N[C@@H](CC(C)C)C(=O)N[C@@H](CC(C)C)C(=O)N[C@@H](CCC(=O)O)C(=O)N[C@@H](CC(N)=O)C(=O)N[C@@H](CS)C(=O)N[C@@H](CC(C)C)C(=O)N[C@@H](Cc1c[nH]c2ccccc12)C(=O)NCC(=O)N[C@@H](CS)C(=O)N1CCC[C@H]1C(=O)N[C@@H](C)C(=O)N[C@@H](CCC(=O)O)C(=O)N[C@@H](CCC(=O)O)C(N)=O [N‐Myc73‐94‐E86C/S90C (red)] (Ac-EPPSWVTEMLLENCLWGCPAEE-NH2)	–	–	–	-6400	203 ± 4 µM	−6397±64^[e] deg cm^−1 dmol^−1 res^−1	18±1%
CSCC[C@H](NC(=O)[C@H](CCC(=O)O)NC(=O)[C@@H](NC(=O)[C@@H](NC(=O)[C@H](Cc1c[nH]c2ccccc12)NC(=O)[C@H](CO)NC(=O)[C@@H]1CCCN1C(=O)[C@@H]1CCCN1C(=O)[C@H](CCC(=O)O)NC(C)=O)C(C)C)[C@@H](C)O)C(=O)N[C@@H](CC(C)C)C(=O)N[C@@H](CC(C)C)C(=O)N[C@@H](CCC(=O)O)C(=O)N[C@H]1CSSC[C@@H](C(=O)N[C@@H](CO)C(=O)N2CCC[C@H]2C(=O)N[C@@H](C)C(=O)N[C@@H](CCC(=O)O)C(=O)N[C@@H](CCC(=O)O)C(N)=O)NC(=O)[C@H](Cc2c[nH]c3ccccc23)NC(=O)[C@H](CC(C)C)NC(=O)[C@H](CCC(=O)O)NC1=O [N‐Myc73‐94‐N85C/G89C (ox)] (Ac-EPPSWVTEMLLECELWCSPAEE-NH2; disulfide 13-17)	–	–	–	-5260	130 ± 9 µM	−5255±217 deg cm^−1 dmol^−1 res^−1	15±1%
CSCC[C@H](NC(=O)[C@H](CCC(=O)O)NC(=O)[C@@H](NC(=O)[C@@H](NC(=O)[C@H](Cc1c[nH]c2ccccc12)NC(=O)[C@H](CO)NC(=O)[C@@H]1CCCN1C(=O)[C@@H]1CCCN1C(=O)[C@H](CCC(=O)O)NC(C)=O)C(C)C)[C@@H](C)O)C(=O)N[C@@H](CC(C)C)C(=O)N[C@@H](CC(C)C)C(=O)N[C@@H](CCC(=O)O)C(=O)N[C@@H](CS)C(=O)N[C@@H](CCC(=O)O)C(=O)N[C@@H](CC(C)C)C(=O)N[C@@H](Cc1c[nH]c2ccccc12)C(=O)N[C@@H](CS)C(=O)N[C@@H](CO)C(=O)N1CCC[C@H]1C(=O)N[C@@H](C)C(=O)N[C@@H](CCC(=O)O)C(=O)N[C@@H](CCC(=O)O)C(N)=O [N‐Myc73‐94‐N85C/G89C (red)] (Ac-EPPSWVTEMLLECELWCSPAEE-NH2)	–	–	–	-4380	123 ± 10 µM	−4383±64^[e] deg cm^−1 dmol^−1 res^−1	13±1%
Ac-SWVTEMLLENELWG-NH2 [N‐Myc76‐89]	–	–	–	-4340	215 ± 11 µM	−4342±142 deg cm^−1 dmol^−1 res^−1	14±1%
